The source of these data is article PMC9490176 (Frontiers in Pharmacology, 2022).

Data set [1] in a line: Stability evaluation in rat plasma (UPLC-MS/MS method validation). The class given is in vitro ADME. The following applies: n = 6. An excerpt: The test method was extensively verified regarding precision, accuracy, and stability, according to the EMA (European Medicines Agency) 2011 and FDA (Food and Drug Administration) 2018 criteria. In six replicates, quality control (QC) samples were generated at low, medium, and high concentrations and were utilized to validate the procedure. This method was designed to conform to EMA and FDA regulatory requirements for bioanalytical methods.

For data set [2], the system named is pyrotinib metabolism in rat liver microsomes (RLMs). Description: In vitro drug-drug interaction study: azole inhibition of pyrotinib metabolism (M1 formation) in RLMs. The class given is in vitro ADME, Sprague-Dawley (SD) rat. The note with it: for IC50: 0.3 mg/ml RLMs, 1 mM NADPH, 37°C, 30 min, n = 3; for Ki / αKi: RLMs, pyrotinib 1, 2, 4, 8 µM, Lineweaver-Burk analysis. The procedure:
The rats were anesthetized with 10% chloral hydrate after 12 h of starvation. […] The rat liver tissue was then accurately removed and transferred to Petri dishes at 0–4°C. The tissues were homogenized in 0.15 mol/L KCl-PBS buffer and stored at 4°C. The homogenate (CR30NX, Eppendorf, Germany) was centrifuged at 9000 rpm at 4°C for 30 min. The supernatant was transferred to another tube and was centrifuged at 105000 rpm at 4°C for 60 min. The precipitate containing liver microsomes was removed and suspended in 0.15 mol/L KCl-PBS buffer (containing 0.25 mol/L sucrose) and stored at −80°C for later use. The liver microsomal concentration was 8.838 mg/ml after the determination with the BCA protein quantification kit (Thermo Scientific, Waltham, MA, United States).
Waters Acquity UPLC I-Class (Waters, USA) was used to separate pyrotinib and midazolam. A binary solvent manager (BSM) and sample manager with a flow-through needle (SM-FTN) were used in the UPLC system. The metabolites’ effective separation was achieved using Acquity UPLC HSS T3 (100 × 2.1 mm, 1.8 μm particle size) (Waters Corporation, Milford, MA, USA) with a mobile phase of acetonitrile (solvent A) and 0.1% formic acid water containing 20 mmol ammonium acetate (solvent B). The gradient program was set as following: 0–0.3 min 10–30% A; 0.3–1 min 30–95% A; 1–2 min 95% A; 2–2.3 min 95–10% A. The mobile phase’s flow rate was 0.4 mL/min, the column temperature was set as 40 °C, and the injection volume was 2 μL. The XEVO TQD triple quadrupole mass spectrometer was equipped with an electrospray ionization (ESI) source, and the multiple reaction monitoring (MRM) mode was selected for quantification. The data were collected using the Mass lynx 4.1 software (Waters Corp.). Mass spectral data were obtained in positive electrospray mode (ESI+) in MRM mode. Nitrogen was used as desolvation (1000 L/h) and cone gases (50 L/h). The ion monitoring voltage conditions were as follows: capillary voltage, 2.5 kV; source temperature, 150°C; desolvation temperature, 500°C. Various reaction monitoring methods were used for quantitative analysis.
200 µl of the incubation mixture was set up as following: 0.3 mg/ml RLMs, 100 mM potassium phosphate buffer (pH 7.4), 1 mM NADPH, and three azole antifungal drugs. […] For fluconazole and itraconazole, the concentrations of them were all adjusted to 0.01, 0.1, 1, 5, 10, 50, and 100 µM. […] The ingredients were combined and pre-warmed for 5 min at 37°C. The reaction was initiated with NADPH and incubated at 37°C for 30 min. Then, 200 µl of acetonitrile-midazolam solution (containing midazolam 200 ng/ml) was added and the mixture was vortexed for 2 min to stop the reaction. After been centrifuged at 13000 rpm for 5 min, 2 µl aliquot of the supernatant was then used for the UPLC-MS/MS analysis.
GraphPad Prism 7.0 software (GraphPad Software Inc.) was used to calculate the enzyme kinetic parameters of substrates which include Vmax, Km, IC50, Ki, and αKi values. The enzyme inhibition mode was obtained using the Linear Lineweaver-Burk plots. The PK characteristics, maximal plasma concentration (Cmax), time to peak plasma concentration (Tmax), apparent volume of distribution (Vz/F), area under the plasma concentration-time curve (AUC), elimination half-life (t1/2), plasma clearance (Cl/F), and mean residence time (MRT), were calculated using DAS (Drug and Statistics) software (Version 3.2.8, The People’s Hospital of Lishui, China). The one-way ANOVA and a Dunnet’s multiple range test were used for the statistical comparisons within groups with SPSS software (Version 25.0; SPSS Inc.). Statistical significance was set at p < 0.05.

On the set-up of data set [3]: method as in Shi et al., 2011. The following applies: with ketoconazole compared with ruxolitinib alone; ref Shi et al., 2011; cited from earlier work.
Data set [4] is described as follows: In vivo pharmacokinetics of pyrotinib in rats with or without azole pretreatment. On the set-up: species or system Sprague-Dawley rats. The note with it: rat, 40 mg/kg azole for 7 days, then 8 mg/kg pyrotinib oral. As for the experimental part: Male Sprague-Dawley rats (180–220 g) were supplied by the Experimental Animal Center of Wenzhou Medical University. The animals were placed in a controlled environment of 20–26°C and 55 ± 15% relative humidity under a 12 h light-dark cycle. Except for the 12-h fasting period before the PK study, all rats were fed a standard rodent diet and freely consumed tap water. All experimental procedures and protocols were reviewed and approved by the Animal Care and Use Committee of the Wenzhou Medical University (No. wydw 2019-650), following the Guidelines for The Care and Use of Laboratory Animals. […] After the last administration of the three azoles or 0.5% CMC-Na (control group), a single dose of 8 mg/kg pyrotinib was administered orally to all rats in each group. Each group consisted of 6 rats. The azole antifungal medication was dissolved in 0.5% carboxymethylcellulose sodium solution (CMC-Na). […] The plasma was obtained by centrifuging the blood samples at 4000 rpm for 10 min at 4°C and stored at −80°C until analysis. The frozen plasma samples were thawed at room temperature and uniformly mixed; 50 μL of plasma sample was removed and mixed with 150 μL acetonitrile-midazolam solution (containing midazolam 200 ng/ml) to precipitate the proteins, followed by vortexing for 30 s and centrifuging at 13,000 rpm for 5 min. Then 150 μL of the supernatant was collected and placed into UPLC vials with 2 μL of sample was subjected to UPLC-MS/MS analysis. GraphPad Prism 7.0 software (GraphPad Software Inc.) was used to calculate the enzyme kinetic parameters of substrates which include Vmax, Km, IC50, Ki, and αKi values. The enzyme inhibition mode was obtained using the Linear Lineweaver-Burk plots. The PK characteristics, maximal plasma concentration (Cmax), time to peak plasma concentration (Tmax), apparent volume of distribution (Vz/F), area under the plasma concentration-time curve (AUC), elimination half-life (t1/2), plasma clearance (Cl/F), and mean residence time (MRT), were calculated using DAS (Drug and Statistics) software (Version 3.2.8, The People’s Hospital of Lishui, China). The one-way ANOVA and a Dunnet’s multiple range test were used for the statistical comparisons within groups with SPSS software (Version 25.0; SPSS Inc.). Statistical significance was set at p < 0.05.

With `CCOc1cc2ncc(C#N)c(Nc3ccc(O)c(Cl)c3)c2cc1NC(=O)/C=C/[C@@H]1CCCN1C` [Pyrotinib M1, O-depicolyl pyrotinib], the “Stability in rat plasma, RE” value in data set [1] (4°C, 24 h, high concentration (pyrotinib 4500, pyrotinib M1 0.75 μM)) is reported as 103.58%; in data set [1] (4°C, 24 h, low concentration (pyrotinib 15, pyrotinib M1 0.015 μM)) it was 104.44%; in data set [1] (4°C, 24 h, medium concentration (pyrotinib 150, pyrotinib M1 0.15 μM)), 108.67%; in data set [1] (Room temperature, 6 h, high concentration (pyrotinib 4500, pyrotinib M1 0.75 μM)), 108.42%; in data set [1] (Room temperature, 6 h, low concentration (pyrotinib 15, pyrotinib M1 0.015 μM)) it was 102.22%; in data set [1] (Room temperature, 6 h, medium concentration (pyrotinib 150, pyrotinib M1 0.15 μM)) it was 102.44%. In addition, the “Stability in rat plasma, RE” value is listed as 104.47% in data set [1] (−80°C, 7 days, high concentration (pyrotinib 4500, pyrotinib M1 0.75 μM)); 109.33% in data set [1] (−80°C, 7 days, low concentration (pyrotinib 15, pyrotinib M1 0.015 μM)); 107.56% in data set [1] (−80°C, 7 days, medium concentration (pyrotinib 150, pyrotinib M1 0.15 μM)).
The term IC50 denotes the concentration needed to halve the response being measured. Low values mean higher potency, high ones lower potency. A word on the Ki: it is the dissociation constant of the complex between target and ligand, obtained from inhibition or displacement. In data set [2], `OC(Cn1cncn1)(Cn1cncn1)c1ccc(F)cc1F` [fluconazole, Fluconazole] displayed an IC50 of 11600 nM, a Ki of 15100 nM and a αKi of 19.01 µM.
Regarding `CC(=O)N1CCN(c2ccc(OCC3COC(Cn4ccnc4)(c4ccc(Cl)cc4Cl)O3)cc2)CC1` (centres unmarked) [ketoconazole, Ketoconazole], in data set [2], the IC50 was determined as 60 nM, the Ki was 132 nM and the αKi is 0.077 µM.
Consider `N#CC[C@H](C1CCCC1)n1cc(-c2ncnc3[nH]ccc23)cn1` [ruxolitinib], for which the “increase of plasma exposure” value in data set [3] was 91%.
Take `CCC(C)n1ncn(-c2ccc(N3CCN(c4ccc(OCC5COC(Cn6cncn6)(c6ccc(Cl)cc6Cl)O5)cc4)CC3)cc2)c1=O` (centres unmarked) [itraconazole, Itraconazole]: the “inhibitory effect on pyrotinib in vivo” value in data set [4] was “no inhibitory effect”. Also, in data set [2], the IC50 came out at 270 nM, the affinity corresponds to a Ki of 496 nM and the αKi is 0.334 µM.
